# Source: patent US11414431B2, “Substituted pyrazolo[1,5-a]pyrimidines as TYK2 inhibitors” (Nimbus Lakshmi, Inc., priority 2018, dated 2022)
# Target: human TYK2 (JH2domain-pseudokinase) (Homo sapiens (Human), UniProt P29597)
# Assay: TYK2 JH2 Domain Binding Assay (KINOMEscan)
# Details: 11-point 3-fold dilution, top concentration 30,000 nM, duplicate; read-out: hTYK2_JH2_Binding (Kd; nM)
# Experimental: Binding constants for compounds of the present invention against the JH2 domain were determined by the following protocol for a KINOMEscan® assay (DiscoveRx). A fusion protein of a partial length construct of human TYK2 (JH2domain-pseudokinase) (amino acids G556 to D888 based on reference sequence NP_003322.3) and the DNA binding domain of NFkB was expressed in transiently transfected HEK293 cells. From these HEK 293 cells, extracts were prepared in M-PER extraction buffer (Pierce) in the presence of Protease Inhibitor Cocktail Complete (Roche) and Phosphatase Inhibitor Cocktail Set II (Merck) per manufacturers' instructions. The TYK2(JH2domain-pseudokinase) fusion protein was labeled with a chimeric double-stranded DNA tag containing the NFkB binding site (5′-[…]-3′) fused to an amplicon for qPCR readout, which was added directly to the expression extract (the final concentration of DNA-tag in the binding reaction is 0.1 nM).
# The liganded beads were blocked with excess biotin and washed with blocking buffer (SeaBlock (Pierce), 1% BSA, 0.05% Tween 20, 1 mM DTT) to remove unbound ligand and to reduce nonspecific binding.
# Extracts were loaded with DNA-tag and diluted into the binding reaction in a two step process. First extracts were diluted 1:100 in 1× binding buffer (PBS/0.05% Tween 20/10 mM DTT/0.1% BSA/2 μg/ml sonicated salmon sperm DNA) containing 10 nM DNA-tag. This dilution was allowed to equilibrate at room temperature for 15 minutes and then subsequently diluted 1:100 in 1× binding buffer. […] Kds were determined using an 11-point 3-fold compound dilution series with three DMSO control points. […] The compounds were then diluted directly into the assays such that the final concentration of DMSO was 0.9%. All reactions performed in polypropylene 384-well plates. Each was a final volume of 0.02 mL. Assays were incubated with shaking for 1 hour at room temperature. Then the beads were pelleted and washed with wash buffer (lx PBS, 0.05% Tween 20) to remove displaced kinase and test compound. […] The qPCR protocol consisted of a 10 minute hot start at 95° C., followed by 35 cycles of 95° C. for 15 seconds, 60° C. for 1 minute.
# Kds were determined using an 11-point 3-fold compound dilution series with three DMSO control points. […] The compounds were then diluted directly into the assays such that the final concentration of DMSO was 0.9%. The Kds were determined using a compound top concentration of 30,000 nM. Kd measurements were performed in duplicate.
# Binding constants (Kds) were calculated with a standard dose-response curve using the Hill equation: […]
# The Hill Slope was set to −1.
# human TYK2 (JH2domain-pseudokinase), sequence (P29597 556-888): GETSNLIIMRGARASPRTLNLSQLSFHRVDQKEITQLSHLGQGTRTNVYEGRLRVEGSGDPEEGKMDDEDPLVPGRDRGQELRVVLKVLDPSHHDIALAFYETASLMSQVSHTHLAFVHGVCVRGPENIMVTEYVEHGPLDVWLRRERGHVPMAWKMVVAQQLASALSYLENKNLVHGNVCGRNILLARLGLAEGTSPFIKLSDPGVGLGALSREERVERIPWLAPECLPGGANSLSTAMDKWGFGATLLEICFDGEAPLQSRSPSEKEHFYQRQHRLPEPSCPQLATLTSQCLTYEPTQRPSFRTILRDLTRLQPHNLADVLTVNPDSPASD
row,Structure (SMILES),Kd [nM]
1,"CNc1cc(Nc2cccn([C@@H]3C[C@H]3F)c2=O)nc2c(C(=O)N[C@@H]3CC[C@H](O)C3)cnn12 [Compound I-42, 5-((1-((1R,2R)-2-Fluorocyclopropyl)-2-oxo-1,2-dihydropyridin-3-yl)amino)-N-((1R,3S)-3-hydroxycyclopentyl)-7-(methylamino)pyrazolo[1,5-a]pyrimidine-3-carboxamide]",0.2 to 1
2,"CNc1cc(Nc2cccn(C3CC(F)(F)C3)c2=O)nc2c(C(=O)N[C@@H]3CCC[C@@]3(C)O)cnn12 [Compound I-91, 5-((1-(3,3-Difluorocyclobutyl)-2-oxo-1,2-dihydropyridin-3-yl)amino)-N-((1R,2R)-2-hydroxy-2-methylcyclopentyl)-7-(methylamino)pyrazolo[1,5-a]pyrimidine-3-carboxamide]",< 0.2
3,"CNc1cc(Nc2cccn([C@H]3CC[C@@H]3O)c2=O)nc2c(C(=O)N[C@@H]3CCC[C@@H](OC)C3)cnn12 [Compound I-96, 5-((1-((1S,2S)-2-Hydroxycyclobutyl)-2-oxo-1,2-dihydropyridin-3-yl)amino)-N-((1R,3R)-3-methoxycyclohexyl)-7-(methylamino)pyrazolo[1,5-a]pyrimidine-3-carboxamide]",1 to 10
4,"CNc1cc(Nc2cccn([C@@H]3CC[C@@H]3O)c2=O)nc2c(C(=O)N[C@H]3CCC[C@H](OC)C3)cnn12 [Compound I-100, 5-((1-((1R,2S)-2-Hydroxycyclobutyl)-2-oxo-1,2-dihydropyridin-3-yl)amino)-N-((1S,3S)-3-methoxycyclohexyl)-7-(methylamino)pyrazolo[1,5-a]pyrimidine-3-carboxamide]",0.2 to 1
5,"CNc1cc(Nc2cccn([C@H]3CCC[C@@](C)(O)C3)c2=O)nc2c(C(=O)NC3CC3)cnn12 [Compound I-2, N-Cyclopropyl-5-((1-((1S,3R)-3-hydroxy-3-methylcyclohexyl)-2-oxo-1,2-dihydropyridin-3-yl)amino)-7-(methylamino)pyrazolo[1,5-a]pyrimidine-3-carboxamide]",0.2 to 1
6,"CNc1cc(-c2cn([C@H]3CO[C@@H](COC)C3)c3ncccc23)nc2c(C(=O)N[C@@H]3CC[C@H]3OC)cnn12 [Compound I-1019, N-((1R,2R)-2-methoxycyclobutyl)-5-(1-(5-(methoxymethyl)tetrahydrofuran-3-yl)-1H-pyrrolo[2,3-b]pyridin-3-yl)-7-(methylamino)pyrazolo[1,5-a]pyrimidine-3-carboxamide]",1 to 10
7,"CNc1ccc(-c2cc(NC)n3ncc(C(=O)NC4CC4)c3n2)n2ccnc12 [Compound I-478, N-Cyclopropyl-7-(methylamino)-5-(8-(methylamino)imidazo[1,2-a]pyridin-5-yl)pyrazolo[1,5-a]pyrimidine-3-carboxamide]",0.2 to 1
8,CNc1cc(Nc2cccn(-c3ocnc3C)c2=O)nc2c(C(=O)N[C@@H]3CC[C@H]3F)cnn12 [Compound I-187],< 0.2
9,CNc1cc(-c2cn([C@H]3COC[C@@H]3O)c3ncccc23)nc2c(C(=O)N[C@@H]3C[C@@H]3F)cnn12 [Compound I-501],< 0.2
10,"CNc1cc(Nc2cccn(C3CCOCC3)c2=O)nc2c(C(=O)N[C@@H]3C[C@H]3OC)cnn12 [Compound I-27, N-((1R,2R)-2-Methoxycyclopropyl)-7-(methylamino)-5-((2-oxo-1-(tetrahydro-2H-pyran-4-yl)-1,2-dihydropyridin-3-yl)amino)pyrazolo[1,5-a]pyrimidine-3-carboxamide]",< 0.2
11,"CNc1cc(Nc2cccn(C3CC(F)(F)C3)c2=O)nc2c(C(=O)N[C@@H]3CC[C@@H](OC)C3)cnn12 [Compound I-72, 5-((1-(3,3-Difluorocyclobutyl)-2-oxo-1,2-dihydropyridin-3-yl)amino)-N-((1R,3R)-3-methoxycyclopentyl)-7-(methylamino)pyrazolo[1,5-a]pyrimidine-3-carboxamide]",1 to 10
12,CO[C@H]1CC[C@@H]1NC(=O)c1cnn2c3c(c(Nc4cccn([C@H]5[C@@H]6COC[C@@H]65)c4=O)nc12)OCCN3 [Compound I-764],< 0.2
13,"CNc1cc(-c2cn(C3CCOCC3)c3ncccc23)nc2c(C(=O)N[C@H]3CCC[C@H](O)C3)cnn12 [Compound I-65, N-((1S,3S)-3-Hydroxycyclohexyl)-7-(methylamino)-5-(1-(tetrahydro-2H-pyran-4-yl)-1H-pyrrolo[2,3-b]pyridin-3-yl)pyrazolo[1,5-a]pyrimidine-3-carboxamide]",< 0.2
14,CNc1ccc(-c2cc(NC)n3ncc(C(=O)N[C@H]4CC[C@@H]4OC)c3n2)n2ccnc12 [Compound I-489],> 10
15,CNc1cc(-c2cn([C@@H]3CCOC[C@H]3O)c3ncccc23)nc2c(C(=O)N[C@@H]3C[C@@H]3F)cnn12 [Compound I-505],< 0.2
16,CNc1cc(-c2cn([C@H]3COC[C@@H]3OC)c3ncccc23)nc2c(C(=O)N[C@@H]3C[C@@H]3F)cnn12 [Compound I-504],< 0.2
17,CNc1cc(-c2cn([C@H]3CCOC[C@@H]3O)c3ncccc23)nc2c(C(=O)NC3CC3)cnn12 [Compound I-498],< 0.2
18,CNc1cc(-c2cn([C@H]3CCOC[C@@H]3O)c3ncccc23)nc2c(C(=O)N[C@@H]3C[C@@H]3F)cnn12 [Compound I-506],< 0.2
19,CNc1cc(Nc2cccn(-c3coc(C)n3)c2=O)nc2c(C(=O)N[C@@H]3C[C@@H]3F)cnn12 [Compound I-126],> 10
20,CC(C)n1cc(-c2nc3c(C(=O)N[C@@H]4CC[C@@H]4O)cnn3c3c2OCCN3)c2cccnc21 [Compound I-755],< 0.2
21,"CNc1cc(Nc2cccn([C@H]3C[C@@H]3F)c2=O)nc2c(C(=O)N[C@H]3CC[C@@H](O)C3)cnn12 [Compound I-45, 5-((1-((1S,2S)-2-Fluorocyclopropyl)-2-oxo-1,2-dihydropyridin-3-yl)amino)-N-((1S,3R)-3-hydroxycyclopentyl)-7-(methylamino)pyrazolo[1,5-a]pyrimidine-3-carboxamide]",0.2 to 1
22,CNc1cc(-c2cnc3n([C@H]4COC[C@@H]4OC)cccc2-3)nc2c(C(=O)N[C@@H]3C[C@@H]3F)cnn12 [Compound I-823],< 0.2
23,"CNc1cc(-c2cn(CCN3CCOCC3)c3ncccc23)nc2c(C(=O)N[C@H]3CC[C@@H]3OC)cnn12 [Compound I-54, N-((1S,2S)-2-Methoxycyclobutyl)-7-(methylamino)-5-(1-(2-morpholinoethyl)-1H-pyrrolo[2,3-b]pyridin-3-yl)pyrazolo[1,5-a]pyrimidine-3-carboxamide]",< 0.2
24,CNc1cc(-c2cn([C@@H]3CCOC[C@H]3O)c3ncccc23)nc2c(C(=O)NC3CC3)cnn12 [Compound I-499],< 0.2
25,CNc1cc(-c2cnc3n([C@@H]4COC[C@H]4OC)cccc2-3)nc2c(C(=O)N[C@@H]3C[C@@H]3F)cnn12 [Compound I-822],< 0.2
26,CNc1cc(-c2cnc3n(CC(=O)N(C)C)cccc2-3)nc2c(C(=O)NC3CC[C@@H]3OC)cnn12 (stereo partly drawn) [Compound I-961],< 0.2
27,"CNc1cc(Nc2cccn([C@H]3C[C@@H]3F)c2=O)nc2c(C(=O)N[C@@H]3CC[C@@H]3O)cnn12 [Compound I-13, 5-((1-((1S,2S)-2-Fluorocyclopropyl)-2-oxo-1,2-dihydropyridin-3-yl)amino)-N-((1R,2S)-2-hydroxycyclobutyl)-7-(methylamino)pyrazolo[1,5-a]pyrimidine-3-carboxamide]",0.2 to 1
